Laboratory results from PubChem BioAssay (NCI).
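Tested at 5 concentrations; 48 h exposure; 96-well plates; endpoints linearly interpolated, else capped at highest concentration. GI50 is the concentration that inhibits growth by half. The concentration for full growth arrest is given as TGI.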

Assays:
Test in all cases: NCI-60 cell line screen, 48 h
SNB-19 CNS = system: SNB-19 CNS
SF-295 CNS = system: SF-295 CNS
MDA-MB-435 = system: MDA-MB-435
CCRF-CEM leukemia = system: CCRF-CEM leukemia
OVCAR-3 ovarian = system: OVCAR-3 ovarian
CAKI-1 renal = system: CAKI-1 renal
OVCAR-4 ovarian = system: OVCAR-4 ovarian
IGROV1 ovarian = system: IGROV1 ovarian
SF-539 CNS = system: SF-539 CNS
UO-31 renal = system: UO-31 renal

Row | SMILES | GI50 (SNB-19 CNS) [nM] | TGI (SNB-19 CNS) [µM] | GI50 (SF-295 CNS) [nM] | TGI (SF-295 CNS) [µM] | GI50 (MDA-MB-435) [nM] | TGI (MDA-MB-435) [µM] | GI50 (CCRF-CEM leukemia) [nM] | TGI (CCRF-CEM leukemia) [µM] | GI50 (OVCAR-3 ovarian) [nM] | TGI (OVCAR-3 ovarian) [µM] | GI50 (CAKI-1 renal) [nM] | TGI (CAKI-1 renal) [µM] | GI50 (OVCAR-4 ovarian) [µM] | TGI (OVCAR-4 ovarian) [µM] | GI50 (IGROV1 ovarian) [nM] | TGI (IGROV1 ovarian) [µM] | GI50 (SF-539 CNS) [nM] | TGI (SF-539 CNS) [µM] | GI50 (UO-31 renal) [nM] | TGI (UO-31 renal) [µM]
1 | CCNC(=O)O[C@H]1CN[C@H](C#Cc2cc3ncnc(Nc4ccc(OCc5cccc(F)c5)c(Cl)c4)c3s2)C1 | 16200 | > 25 | 8130 | > 25 | 9270 | > 25 | 2910 | > 25 | 3770 | 16.7 | 880 | > 25 | 9.94 | > 25 | 2660 | > 25 | 5770 | > 18.4 | 1490 | > 18.4
2 | CCN(CC)c1ccc(C(=O)c2ccc(N(CC)CC)cc2)cc1 | 2470 | > 100 | 289 | 4.17 | 69.4 | 0.43 | 383 | > 100 | 264 | 0.706 | 364 | > 36.7 | 2.14 | > 100 | 602 | > 100 | 436 | 10.5 | 680 | 64.2
3 | C=C(c1ccccc1)[C@@]1(O)CC[C@@H]1N(CC#N)Cc1ccccc1 | – | > 63.8 | – | > 100 | – | 47.5 | – | 62.5 | – | 17.1 | – | 45.7 | – | 29.1 | – | 72.6 | – | 63.1 | – | 67.4
4 | O=C1C(=O)c2cccnc2-c2ncccc21 | 236 | 1.1 | 295 | 0.946 | 263 | 1.02 | 79.7 | 0.618 | 193 | 0.503 | 605 | 1.92 | 0.139 | 0.268 | 133 | 0.413 | 184 | 0.502 | 159 | 0.486
5 | CCCCCCCc1cc2c3c(nc4ccccc42)C(=O)c2cccnc2-c3n1 | 2170 | 7.31 | 3450 | 7.32 | 1960 | 4.33 | 1620 | 7.66 | 2300 | 8.97 | 4600 | 9.51 | 5.74 | 13.8 | 3280 | 15.1 | 18800 | 34.8 | 3850 | 11
6 | Cc1ccc(O)c(NC(=O)c2ccc(CNc3ccnc(C(F)(F)F)c3)cc2)c1 | 6150 | 48 | 1350 | 12.2 | 4260 | 22.1 | 496 | 17.7 | 11300 | 28.2 | 6330 | 40.6 | 26.7 | > 100 | 1820 | 16.4 | 4160 | 20.9 | 1120 | 13.3
7 | CN(Cc1cc(C(C)(C)C)cc(Br)c1O)Cc1cc(C(C)(C)C)cc(Br)c1O | – | 19.3 | – | 14.3 | – | 15.9 | – | 10.4 | – | 6.73 | – | 11.4 | – | 17.8 | – | 13.5 | – | 7.66 | – | 12.7
8 | Cc1cnc(C(=O)Nc2nc3ccc(S(=O)(=O)Nc4ccc(C5(C(F)(F)F)CC5)cc4)cc3[nH]2)cn1 | 553 | 13.3 | 237 | 3.27 | 57.1 | 0.238 | 379 | 22.8 | 250 | 1.34 | 360 | 15.7 | 2.07 | 9.26 | 606 | 5.02 | 314 | 3.3 | 481 | 6.2
